Measured values published in patent US20230167437A1, “COMPOSITIONS FOR TREATING CANCER WITH KRAS MUTATIONS AND USES THEREOF” (Aadigen, LLC, priority 2020, published 2023).
Where “and” joins values, the source holds several entries; their conditions need not be identical. Equal entries are not always repeated.

How the values were obtained:
pERK = test: Downstream signaling proteins quantified by ELISA on tumors; assay type: in vivo, mice; conditions: PANC1 tumors
Method: (§1) The specificity of gRNA35A5 G12D and gRNA35T3 G12V for their targets in PANC-1 and SW403 tumors cells, have been analyzed. Female nude mice 6-weeks of age were injected with either Human pancreatic carcinoma cell (Panc1-Luc) containing the 35G>A mutation or Human colorectal cancer cells (SW403) containing 35G>T KRAS mutation (20×10^6 cells in 200 μl PBS). A period of 2 weeks was allowed for tumor development before the beginning of the experiments.
(§2) Animal were injected on day 1 and day 7. Mice received IV injection of 100 μl ADGN/mRNA complex in 5% glucose. At Day 50, animals were sacrificed and tissues/tumors were harvested. At Day 50 post treatment, level of expression of housekeeping genes; glyceraldehyde-3-phosphate dehydrogenase (GAPDH), HPRT-1 and mitochondrial ATP synthase 6 (mATPsy6) was evaluated by PCR in the tumor, liver, spleen and lung.
(§3) We analyzed the level of KRAS G12D or KRAS G12V gene editing by deep sequencing in PANC1 (FIG. 14A) and SW403 (FIG. 14B) tumors, respectively. […] The level of downstream signaling proteins (pAKT and pERK) were quantified by ELISA on PANC1 and SW403 tumors. […] Given that targeting KRAS using Cas9/sgRNA can induce various secondary mutations at or near the target sites, deep sequencing shown similar level of secondary oncogenic mutations (G12D, G12V, G12C, G13D, G12R, G12A, and G12S) in KRAS-mutant cancer cells (SW403/PANC-1) or cells containing wild-type KRAS (HT29) either in vitro or in vivo.

pAKT = test: as above; assay type: in vivo, mice; conditions: PANC1 tumors
Method: as §1, §2, §3

KRAS 35G>A mutant G12D = test: Indel frequencies at the endogenous target sequences (T7E1 / deep sequencing) after ADGN/Cas9 mRNA/gRNA transfection; assay type: cell-based, human; conditions: for indel frequencies: deep sequencing, 72 hours after transfection, Cas9 mRNA 0.1 μg, gRNA 0.2 μg
Method: Complex formation with mRNA:gRNA: ADGN peptide/mRNA/gRNA particles were prepared at a 20:1:1 molar ratio. ADGN/Cas9mRNA/sgRNA complexes were prepared at a 20/1/1 molar ratio with 0.5 μg mRNA: 1.5 μg sgRNA and 5% Glucose or DMEM (example for 96 well plates). […] Premixed Cas9 mRNA/gRNA were prepared in sterile water at room temperature in a glass vial (1-4 ml). ADGN-peptide solution was added dropwise (1 drop/sec) under magnetic agitation at 400 rpm to obtain a 1:2 ratio, and incubated for 30 min at room temperature or 37° C. Just before transfection, 150 μl Glucose or DMEM was added and the solution was mixed under magnetic agitation at 400 rpm for 1 minute. Then the solution was incubated for 5 min at 37° C. Then the complexes was ready for cell transfection or IV administration. Prior to IV administration, complexes were diluted in sucrose 5% solution.
(§4) Transfection protocol. The following protocols are reported for 24/48/96 well plate format transfection. Cells should be trypsinized and seeded a day prior transfection Cells were cultured in Dulbecco's Modified Eagle's Medium (DMEM), supplemented with 2 mM glutamine, 1% antibiotics (streptomycin 10,000 μg/mL, penicillin, 10,000 IU/mL) and 10% (w/v) foetal calf serum (FCS), at 37° C. in a humidified atmosphere containing 5% CO2. 96 well plates seeded with 50,000 cells, the day prior transfection, grown to 60-80% confluence and set up to be at around 70% confluence at the day of transfection. Before transfection, cells are washed twice with DMEM (without FBS and pen/strep) (100 μl/well). Cells were then overlaid with 25 μl of complex solution, mixed gently and incubated for 10 min at 37° C.+5% CO2. 50 μl of fresh DMEM (without FBS and Antibiotics) was added and cells were incubated for 2 h at 37° C.+5% CO2 (time of exposure can be adjusted based on sensitivity of the cells). 250 μL of DMEM (containing 10% FCS and 1% antibiotics) were then added without removing the overlay of ADGN peptide/mRNA complexes. Cells were returned to the incubator (37° C., 5% CO2) and analyzed 48 hours to 72 hours post transfection.
(§5) Nine different gRNAs targeting KRAS 35G>A mutant G12D (gRNA35A1, gRNA35A2, gRNA35A3, gRNA35A4, gRNA35A5, gRNA35A6; gRNA35A7, gRNA35A8, gRNA35A9) were evaluated on LS513, Panc1, PK-45H, and PK1 cancer cells harboring G12D KRAS mutation. Cas9 mRNA (0.1 μg) and gRNA (0.2 μg) were associated with ADGN-peptide at molar ratio 20/1 (peptide/nucleic acid). LS513, Panc1, PK-45H, PK1, HS-68 and HT-29 cells were cultured in 48 well plate format and treated with free mRNACas9-gRNA, or ADGN/mRNACas9:gRNA complex. Indel frequencies at the endogenous target sequences was evaluated 72 hours after transfection by either T7E1 method or deep sequencing. Cell proliferation was analyzed over a period of 5 days using CellTiter Glow kits on GlowMax (Promega).
(§6) In order to confirm the specificity of sgRNAs targeting G12V, G12C or G12D KRAS mutation, gRNA35T3 targeting G12V, gRNA34T6 targeting G12C, and gRNA35A5 targeting G12D were evaluated on a large panel of cancer cells harboring different KRAS mutations including SW403, SW480, PANC1, PK-45H, PK-1, MIA-PACA, H23, H358, HT-29, HS-68 and LS513. Cas9 mRNA (0.2 μg) and gRNA (0.4 μg) were associated with ADGN peptide at molar ratio 20/1 (peptide/nucleic acid). Cells were cultured in 48 well plate format and treated with free mRNACas9-gRNA, or ADGN/mRNACas9:gRNA complex. Indel frequencies at the endogenous target sequences was evaluated 72 hours after transfection by either T7E1 method and cell proliferation was analyzed over a period of 5 days using CellTiter Glow kits on GlowMax (Promega).

[1] = system: PANC1, PK1, LS513 and PK-45H cells; test: Cell proliferation over 5 days (CellTiter Glow); assay type: cell-based, human
Method: as §4, §5

[2] = system: G12V, G12D, G12C KRAS mutant cells and WT KRAS cells; test: Specificity of lead sgRNAs on a large panel of cancer cells harboring different KRAS mutations (indel, proliferation); assay type: cell-based, human; conditions: Cas9 mRNA 0.2 μg, gRNA 0.4 μg
Method: as §6

## AGT TGG AGC TGA TGG CGT (guide AGTTGGAGCTGATGGCGT; chemistry not given here) [gRNA35A5, sgRNA target KRAS G12D mutation (35G>A); PAM AGG]
pERK
  level of p-ERK: significantly reduced
pAKT
  level of p-AKT: significantly reduced
KRAS 35G>A mutant G12D; G12D cancer cells vs wild type KRAS cells (HT29 or HS-68)
  disruption of G12D mutant KRAS (FIG. 2A): induced efficient disruption of G12D mutant KRAS
KRAS 35G>A mutant G12D; KRAS G12D mutated cancer cells
  indel frequency: > 70%
KRAS 35G>A mutant G12D; LS513 cells
  indel frequencies: 35 ± 4%
KRAS 35G>A mutant G12D; PANC1 cells
  indel frequencies: 67% and 67 ± 5%
KRAS 35G>A mutant G12D; PANC-1, PK-1, and PK-45H cells, T7E1, 72 hours, Cas9 mRNA 0.2 μg, gRNA 0.4 μg
  indel frequency: > 75%
KRAS 35G>A mutant G12D; PK1 cells
  indel frequencies: 78% and 78 ± 8%
KRAS 35G>A mutant G12D; PK-45H cells
  indel frequencies: 75% and 75 ± 7%
[1]
  fold more efficient than gRNA35A2 (cell proliferation): 2 fold
  fold more efficient than gRNA35A6 (cell proliferation): 3 fold
[1]; PANC1, PK1, LS513, PK-45H vs HT29 or HS-68 cells harboring KRAS WT
  inhibition of proliferation or survival (FIG. 2B): specifically inhibit proliferation or survival of PANC1, PK1, LS513 and PK-45H cells
[1]; PANC1, PK1, LS513 and PK-45H cells, 5 days
  cell proliferation blocked: 80%
[2]
  effect on non-targeted KRAS mutant cells and WT KRAS cells (FIGS. 4A-4B): does not alter G12V and G12C KRAS mutant cells or WT KRAS cells
